Source: US9533973B2, “Allosteric modulators of 5-hydroxytryptamine 2C receptor (5-HT2CR)” (THE BOARD OF REGENTS OF THE UNIVERSITY OF TEXAS SYSTEM, priority 2011, dated 2017)
“Also recorded” adds a separate entry of the source.

Tests used:
[1] = Solubility of representative compounds (Table 1); format: physicochemical; details: solvents listed
5-HT2CR = target: T1, 5-HT2CR (Homo sapiens, UniProt P28335); assay: 5-HT induced intracellular calcium (Cai++) release assay in live 5-HT2CR-CHO cells; format: cell-based; set-up: expressed in transfected cells; details: 5-HT2CR-CHO cells
T1 sequence (P28335 33-458): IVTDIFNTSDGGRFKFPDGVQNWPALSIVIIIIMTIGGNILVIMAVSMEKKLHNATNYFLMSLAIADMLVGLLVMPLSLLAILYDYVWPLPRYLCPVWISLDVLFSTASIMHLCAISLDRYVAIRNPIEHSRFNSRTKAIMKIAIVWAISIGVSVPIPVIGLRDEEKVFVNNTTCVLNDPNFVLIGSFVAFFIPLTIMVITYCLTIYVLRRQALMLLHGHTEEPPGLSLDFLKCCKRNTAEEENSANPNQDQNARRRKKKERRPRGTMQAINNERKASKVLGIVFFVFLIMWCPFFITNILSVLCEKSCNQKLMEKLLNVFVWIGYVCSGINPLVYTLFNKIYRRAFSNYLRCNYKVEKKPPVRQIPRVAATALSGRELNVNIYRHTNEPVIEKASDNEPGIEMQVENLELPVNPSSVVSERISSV
Procedure: Selected results for the biological characterization of the synthesized compounds can be found in Ding et al., ACS Chem. Neurosci., 3, 538-545, 2012, and also described herein. The biological activity is assessed using an intracellular calcium (Cai^++) release assay. The best-characterized intracellular signaling pathway of the 5-HT2CR is the activation of phospholipase C (PLCβ) via Gαq/11 proteins and the production of diacylglycerol (DAG) and inositol-1,4,5-trisphosphate (IP3), leading to increased Cai^++ release from intracellular stores (Berg et al., Neuropharmacology 55, 969-76, 2008). Functional characterization of our synthetic PNU-69176E (CYD-1-78-2) and its diastereomer CYD-1-78-1 was determined by utilizing an Cai^++ release assay in live cells in which Cai^++ levels can be regarded as an outcome measure of activation of the 5-HT2CR signaling pathway (Berg et al., Neuropharmacology 55, 969-76, 2008). […] In addition, 1 nM of compound CYD-1-78-2 enhanced the Cai^++ response at low concentrations of 5-HT [10^11-3×10^−10 M; F(15,55)=16.73, p<0.01; FIG. 2]. […] Neither compound CYD-1-78-2 [F(10,68)=0.81, n.s.] nor the diastereomer CYD-1-78-1 [F(10,34)=0.76, n.s.] in concentrations up to 10^−5 M induced Cai^++ release in the 5-HT2CR—CHO cells in the absence of 5-HT (FIG. 3). This profile for compounds CYD-1-78-2 and −1 in 5-HT2CR—CHO cells was distinguished from that seen in 5-HT2AR—CHO cells in which neither compound alone or in the presence of 5-HT (compound CYD-1-78-1, F(10,43)=0.78; compound CYD-1-78-2, F(10,55)=1.27; FIG. 4) altered Cai^++ release (Ding et al., ACS Chem. Neurosci. 3, 538-545, 2012).
The Chinese hamster ovary (CHO) cell line stably transfected with 5-HT2CR was a generous gift of K. Berg and W. Clarke (University of Texas Health Science Center, San Antonio) (K. A. Berg, W. P. Clarke, C. Sailstad, A. Saltzman and S. Maayani, Mol. Pharmacol. 1994, 46 (3), 477-484; Ding et al., ACS Chem. Neurosci. 3, 538-545, 2012). Cells were grown at 37° C., 5% CO2 and 85% relative humidity in GlutaMax α-MEM (Invitrogen, Carlsbad Calif.), 5% fetal bovine serum (Atlanta Biologicals, Atlanta Ga.), 100 μg/mL hygromycin (Mediatech, Manassas Va.) and were passaged when they reached 80% confluence.
Changes in Cai^++ levels were determined using the calcium sensitive dye Calcium 4 (FLIPR No-wash kit, Molecular Devices, Sunnyvale, Calif., part #R8142). Cells were plated in serum-replete medium at 20,000 cells/well in black-sided, clear bottom 96-well tissue culture plates and were fed ˜24 hrs later with serum-free medium. Following overnight incubation, medium was removed and replaced with 40 μL of fresh serum-free medium plus 40 μL Calcium 4 dye solution in Hank's balanced saline solution (HBSS, without CaCl2 or MgCl2) supplemented with 2.5 mM water soluble probenicid (Invitrogen) to inhibit extracellular transport of the dye. Plates were incubated for 60 min at 37° C. and 60 min at room temperature in the dark. Fluorescence (λex=485 nm, λem=525 nm) was measured with a FlexStation3 (Molecular Devices). A baseline was established for each well during the initial segment of each run. Addition of 20 μL of 5× concentrated tested compound occurred at 17 sec and fluorescence was recorded every 1.7 sec for 90 sec to determine any innate agonist activity. This first round of 90 sec recordings provided a 20 min preincubation period. […] Maximum peak height was determined by the FlexStation software (SoftMax Pro 5.2) for each well and was normalized to vehicle control.

- Solubility [1]: EtOH, DMSO
- effect on 5-HT-induced Cai++ release (5-HT2CR; positive allosteric modulation): enhanced; also recorded: potentiated
- EC50 (5-HT2CR; 5-HT-induced Cai++ release): 8 ± 4 nM
SMILES: CS[C@H]1OC([C@@H](NC(=O)C2CNCCN2c2ccccc2)[C@H](C)Cl)[C@H](O)[C@H](O)[C@H]1O (stereo partly drawn) [CYD-1-82, 1-Phenyl-piperazine-2-carboxylic acid [2-chloro-1-(3,4,5-trihydroxy-6-methylsulfanyl-tetrahydro-pyran-2-yl)-propyl]amide]
